Reference: US11142554B2 (MASSACHUSETTS INSTITUTE OF TECHNOLOGY, priority 2015, dated 2021)
Residues, ends and D or L forms follow the SMILES beside them.

Assays:
[1] = molecular target: Bcl-xL (Homo sapiens, UniProt Q07817); test: receptor | Bcl-xL
[2] = molecular target: Bcl-w (Homo sapiens, UniProt Q92843); test: receptor | Bcl-w
[3] = molecular target: Bfl-1 (Homo sapiens, UniProt Q16548); test: receptor | Bfl-1
[4] = molecular target: Bcl-2 (Homo sapiens, UniProt P10415); test: receptor | Bcl-2
[5] = molecular target: KSBcl-2; test: receptor | KSBcl-2

Sequence of Bfl-1 (Q16548 whole entry, looked up): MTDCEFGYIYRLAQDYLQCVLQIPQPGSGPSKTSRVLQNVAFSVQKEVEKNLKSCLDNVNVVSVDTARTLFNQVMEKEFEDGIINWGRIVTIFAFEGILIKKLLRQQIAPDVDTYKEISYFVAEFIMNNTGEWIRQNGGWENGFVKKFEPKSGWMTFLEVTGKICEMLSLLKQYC
Sequence of Bcl-2 (P10415 whole entry, looked up): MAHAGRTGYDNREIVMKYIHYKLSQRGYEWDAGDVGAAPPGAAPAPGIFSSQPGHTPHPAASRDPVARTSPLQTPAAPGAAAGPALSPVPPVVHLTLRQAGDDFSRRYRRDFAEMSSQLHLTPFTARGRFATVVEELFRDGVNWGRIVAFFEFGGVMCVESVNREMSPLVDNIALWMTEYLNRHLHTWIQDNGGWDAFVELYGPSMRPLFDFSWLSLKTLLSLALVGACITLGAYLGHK
Sequence of Bcl-xL (Q07817 whole entry, looked up): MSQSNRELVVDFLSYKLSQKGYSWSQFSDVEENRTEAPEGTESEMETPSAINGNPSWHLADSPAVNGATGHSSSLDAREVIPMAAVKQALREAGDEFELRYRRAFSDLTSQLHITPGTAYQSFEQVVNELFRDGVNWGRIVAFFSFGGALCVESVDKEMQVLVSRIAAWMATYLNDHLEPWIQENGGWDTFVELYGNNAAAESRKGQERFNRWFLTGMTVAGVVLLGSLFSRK
Sequence of Bcl-w (Q92843 2-193 limits assumed): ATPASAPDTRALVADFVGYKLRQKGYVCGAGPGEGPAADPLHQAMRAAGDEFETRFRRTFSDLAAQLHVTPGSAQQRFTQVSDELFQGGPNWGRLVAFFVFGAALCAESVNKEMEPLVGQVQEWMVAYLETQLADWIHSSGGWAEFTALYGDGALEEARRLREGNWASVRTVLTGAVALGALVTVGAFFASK

Row | Compound | Kd [1] | Kd [2] | Kd [3] | Kd [4] | Kd [5]
1 | CC[C@H](C)[C@H](NC(=O)[C@H](CCCNC(=N)N)NC(=O)[C@H](CCCNC(=N)N)NC(=O)[C@H](CC(C)C)NC(=O)[C@H](CCC(=O)O)NC(=O)[C@H](CCC(N)=O)NC(=O)[C@@H](NC(=O)[C@@H](NC(=O)[C@H](Cc1c[nH]c2ccccc12)NC(=O)[C@@H](NC(=O)[C@H](CCC(=O)O)NC(=O)[C@@H]1CCCN1C(=O)[C@@H](N)CCCNC(=N)N)[C@@H](C)CC)[C@@H](C)CC)[C@@H](C)O)C(=O)NCC(=O)N[C@@H](CC(=O)O)C(=O)N[C@@H](CCC(=O)O)C(=O)N[C@@H](Cc1ccccc1)C(=O)N[C@@H](CC(N)=O)C(=O)N[C@@H](C)C(=O)N[C@@H](Cc1ccc(O)cc1)C(=O)N[C@@H](Cc1ccc(O)cc1)C(=O)N[C@@H](C)C(=O)N[C@@H](CCCNC(=N)N)C(N)=O [Bim_A2eT] | 17 ± 4.8 nM | 39 ± 9.4 nM | 31 ± 6.8 nM | 43 ± 12 nM | –
2 | CC[C@H](C)[C@H](NC(=O)[C@H](CCCNC(=N)N)NC(=O)[C@H](CCCNC(=N)N)NC(=O)[C@H](CC(C)C)NC(=O)[C@H](CCC(=O)O)NC(=O)[C@H](CCC(N)=O)NC(=O)[C@@H](NC(=O)[C@H](CCSC)NC(=O)[C@H](Cc1c[nH]c2ccccc12)NC(=O)[C@@H](NC(=O)[C@H](CCC(=O)O)NC(=O)[C@@H]1CCCN1C(=O)[C@@H](N)CCCNC(=N)N)[C@@H](C)CC)[C@@H](C)O)C(=O)NCC(=O)N[C@@H](CC(=O)O)C(=O)N[C@@H](CCC(=O)O)C(=O)N[C@@H](Cc1ccccc1)C(=O)N[C@@H](CC(N)=O)C(=O)N[C@@H](C)C(=O)N[C@@H](Cc1ccc(O)cc1)C(=O)N[C@@H](Cc1ccc(O)cc1)C(=O)N[C@@H](C)C(=O)N[C@@H](CCCNC(=N)N)C(N)=O [Bim_A2eT_I2dM] | 83 ± 53 nM | 260 ± 52 nM | 150 ± 69 nM | 210 ± 71 nM | –
3 | CC[C@H](C)[C@H](NC(=O)[C@H](CCC(=O)O)NC(=O)[C@H](CC(=O)O)NC(=O)CNC(=O)[C@H](CC(C)C)NC(=O)[C@H](CCCNC(=N)N)NC(=O)[C@H](CCC(N)=O)NC(=O)[C@H](CC(C)C)NC(=O)[C@H](Cc1c[nH]cn1)NC(=O)[C@H](CCC(N)=O)NC(=O)[C@@H](NC(=O)[C@H](CC(C)C)NC(=O)[C@H](Cc1c[nH]c2ccccc12)NC(=O)[C@@H](NC(=O)[C@H](CCC(=O)O)NC(=O)[C@@H]1CCCN1C(=O)[C@@H](N)CCCNC(=N)N)[C@@H](C)CC)[C@@H](C)O)C(=O)N[C@@H](CC(N)=O)C(=O)N[C@@H](C)C(=O)N[C@@H](Cc1ccc(O)cc1)C(=O)N[C@@H](Cc1ccc(O)cc1)C(=O)N[C@@H](C)C(=O)N[C@@H](CCCNC(=N)N)C(N)=O [MS3] | – | 340 ± 69 nM | 790 ± 140 nM | – | –
4 | CC[C@H](C)[C@H](NC(=O)[C@H](CCC(=O)O)NC(=O)[C@@H]1CCCN1C(=O)[C@@H](N)CCCNC(=N)N)C(=O)N[C@@H](Cc1c[nH]c2ccccc12)C(=O)N[C@H](C(=O)N[C@H](C(=O)N[C@@H](CCC(N)=O)C(=O)N[C@@H](CCC(=O)O)C(=O)N[C@@H](CC(C)C)C(=O)N[C@@H](CCCNC(=N)N)C(=O)N[C@@H](CCCNC(=N)N)C(=O)N[C@@H](CC(C)C)C(=O)NCC(=O)N[C@@H](CC(=O)O)C(=O)N[C@@H](CCC(=O)O)C(=O)N[C@@H](Cc1ccccc1)C(=O)N[C@@H](CC(N)=O)C(=O)N[C@@H](C)C(=O)N[C@@H](Cc1ccc(O)cc1)C(=O)N[C@@H](Cc1ccc(O)cc1)C(=O)N[C@@H](C)C(=O)N[C@@H](CCCNC(=N)N)C(N)=O)[C@@H](C)O)[C@@H](C)CC [Bim_A2eT_I3dL] | 7.6 ± 3.8 nM | 12 ± 2.6 nM | 120 ± 27 nM | 37 ± 14 nM | –
5 | CC[C@H](C)[C@H](NC(=O)[C@H](CCC(=O)O)NC(=O)[C@H](CC(=O)O)NC(=O)CNC(=O)[C@H](CC(C)C)NC(=O)[C@H](CCCNC(=N)N)NC(=O)[C@H](CCC(N)=O)NC(=O)[C@H](CC(C)C)NC(=O)[C@H](CO)NC(=O)[C@H](CCC(N)=O)NC(=O)CNC(=O)[C@H](CC(C)C)NC(=O)[C@H](Cc1c[nH]c2ccccc12)NC(=O)[C@@H](NC(=O)[C@H](CCC(=O)O)NC(=O)[C@@H]1CCCN1C(=O)[C@@H](N)CCCNC(=N)N)[C@@H](C)CC)C(=O)N[C@@H](CC(N)=O)C(=O)N[C@@H](C)C(=O)N[C@@H](Cc1ccc(O)cc1)C(=O)N[C@@H](Cc1ccc(O)cc1)C(=O)N[C@@H](C)C(=O)N[C@@H](CCCNC(=N)N)C(N)=O [B3] (H-RPEIWLGQSLQRLGDEINAYYAR-NH2; N-terminus and C-terminus assumed) | – | – | – | – | 1.43 ± 1.39 nM
6 | CC[C@H](C)[C@H](NC(=O)[C@H](CCC(=O)O)NC(=O)[C@H](CC(=O)O)NC(=O)CNC(=O)[C@H](CC(C)C)NC(=O)[C@H](CCCNC(=N)N)NC(=O)[C@H](CCCNC(=N)N)NC(=O)[C@H](CC(C)C)NC(=O)CNC(=O)[C@H](CCC(N)=O)NC(=O)CNC(=O)[C@H](CCSC)NC(=O)[C@H](Cc1c[nH]c2ccccc12)NC(=O)[C@@H](NC(=O)[C@H](CCC(=O)O)NC(=O)[C@@H]1CCCN1C(=O)[C@@H](N)CCCNC(=N)N)[C@@H](C)CC)C(=O)N[C@@H](CC(N)=O)C(=O)N[C@@H](C)C(=O)N[C@@H](Cc1ccc(O)cc1)C(=O)N[C@@H](Cc1ccc(O)cc1)C(=O)N[C@@H](C)C(=O)N[C@@H](CCCNC(=N)N)C(N)=O [A12] (H-RPEIWMGQGLRRLGDEINAYYAR-NH2; N-terminus and C-terminus assumed) | – | – | – | – | 4 ± 2.6 nM
7 | RPEIWMTQGLRRLGDEINAYYAR [MS1] | – | – | – | – | 2.9 ± 0.68 nM
8 | RPEIWLTQSLQRLGDEINAYYAR [MS2] | – | – | – | – | < 1 nM
